We go through 77 sequences from the supplement of paper PMC11208160.
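Note: IS621 recombinase and bridge RNA in Escherichia coli cells.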

The series in a line: recombinant barcode read abundance after kanamycin selection (control-corrected) (log10(CPM+1)); higher = more efficient recombination; sequences stand for … in AGTGCAGAGAAAATCGGCCAGTTTTCTCTGCCTGCAGTCCGCATGCCGT…AGATTTATGCAGCGGACTGCCTTTCTCCCAAAGTGATAAACCGGACAGTATCATGGACCGGTTTTCCCGGTAATCCGTATTTGCAAGGTTGGTTTCACT; site = the 11-nt target. An outline of the steps:
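This pooled E. coli screen matched targets with IS621 bridge RNA target-binding loops. Plating was done in duplicate on chloramphenicol/ampicillin LB agar as a control and on chloramphenicol/ampicillin/kanamycin plus 0.1 mM IPTG. Recombination efficiency reflects barcode counts at recombinant junctions as counts per million, averaged and control-corrected. The figures are log10(CPM+1).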
On to “CCTACAACTTGGGTTCTAACCTGTTGCCT (site CCTACAACTAG)”, for which the “recombinant barcode read abundance (log10)” value came out at 0.313. With “CCTACAACTTGGGTTCTAACCTGTTGCCT (site CCTACACCTAG)” the figure was 0.0313; with “CCTACAACTTGGGTTCTAACCTGTTGCCT (site CCTACAGCTAG)”, 0.138; with “CCTACAACTTGGGTTCTAACCTGTTGCCT (site CCTACATCTAG)”, 0.227. With “CCTACAGCTTGGGTTCTAACCTGTTGCCT (site CCTACAACTAG)” the figure was 0.363; with “CCTACAGCTTGGGTTCTAACCTGTTGCCT (site CCTACACCTAG)”, 0.37.

In the case of “CCTACAGCTTGGGTTCTAACCTGTTGCCT (site CCTACAGCTAG)”, the “recombinant barcode read abundance (log10)” value came out at 0.532. With “CCTACAGCTTGGGTTCTAACCTGTTGCCT (site CCTACATCTAG)” the figure was 0.0747; with “CCTACATCTTGGGTTCTAACCTGTTGCTA (site CCTACATCTAT)”, 0.177.

Take “CCTACATCTTGGGTTCTAACCTGTTGCTA (site CCTACATCTTA)”: the “recombinant barcode read abundance (log10)” value was 0.0332. With “CCTACGCCTTGGGTTCTAACCTGTTGCCA (site CCTACGCCTTG)” the figure was 0.842. With “CCTACGCCTTGGGTTCTAACCTGTTGCCA (site TTCCGAGCTCT)” the figure was 0; with “CCTACTACTTGGGTTCTAACCTGTTGCCG (site CCTACTACTCG)”, 0.0812; with “CCTACTACTTGGGTTCTAACCTGTTGCCG (site CCTACTCCTCT)”, 0.0358. Take “CCTACTCCTTGGGTTCTAACCTGTTGCCT (site CCTACTCCTAG)”: the “recombinant barcode read abundance (log10)” value is 0.281.

Consider “CCTACTCCTTGGGTTCTAACCTGTTGCCT (site CCTGCTCCTAA)”, for which the “recombinant barcode read abundance (log10)” value stood at 0.0634. With “CCTAGAGCTTGGGTTCTAACCTGTTGCCT (site CCTAGAACTAG)” the figure was 0.097. With “CCTAGAGCTTGGGTTCTAACCTGTTGCCT (site CCTAGACCTAG)” the figure was 0.241; with “CCTAGAGCTTGGGTTCTAACCTGTTGCCT (site CCTAGAGCTAG)”, 0.694. As to “CCTAGAGCTTGGGTTCTAACCTGTTGCCT (site CCTAGATCTAG)”, the “recombinant barcode read abundance (log10)” value amounted to 0.0587. With “CCTAGATCTTGGGTTCTAACCTGTTGCCT (site CCTAGAACTAG)” the figure was 0.107.

In the case of “CCTAGATCTTGGGTTCTAACCTGTTGCCT (site CCTAGACCTAG)”, the “recombinant barcode read abundance (log10)” value came to 0.141. For “CCTAGATCTTGGGTTCTAACCTGTTGCCT (site CCTAGAGCTAG)”, the “recombinant barcode read abundance (log10)” value was found to be 0.0181. With “CCTAGATCTTGGGTTCTAACCTGTTGCCT (site CCTAGATCTAG)” the figure was 0.372. With “CCTATGTCTTGGGTTCTAACCTGTTGCTA (site ACTATGTCTTG)” the figure was 0.0985; with “CCTATGTCTTGGGTTCTAACCTGTTGCTA (site CCTATGTCTTA)”, 0.528.

As to “CCTCCCTCTTGGGTTCTAACCTGTTGCTA (site CCTCCCTCTCA)”, the “recombinant barcode read abundance (log10)” value came out at 0.481. With “CCTCCCTCTTGGGTTCTAACCTGTTGCTA (site CCTCCCTCTTA)” the figure was 1.84; with “CCTGACACTTGGGTTCTAACCTGTTGCGG (site CCTGACACTCC)”, 1.66; with “CCTGACACTTGGGTTCTAACCTGTTGCGG (site CCTTACACTCC)”, 0.232. With “CCTGGGACTTGGGTTCTAACCTGTTGCGC (site CCTGGGACTAC)” the figure was 0.684; with “CCTGGGACTTGGGTTCTAACCTGTTGCGC (site CCTGGGACTCC)”, 0.347. For “CCTGGGACTTGGGTTCTAACCTGTTGCGC (site CCTGGGACTGC)”, the “recombinant barcode read abundance (log10)” value worked out at 1.24. With “CCTGGGACTTGGGTTCTAACCTGTTGCGC (site CCTGGGACTTC)” the figure was 0.214. With “CCTGGGACTTGGGTTCTAACCTGTTGCGG (site CCTGGGACTAC)” the figure was 0; with “CCTGGGACTTGGGTTCTAACCTGTTGCGG (site CCTGGGACTCC)”, 2.29.

Take “CCTGGGACTTGGGTTCTAACCTGTTGCGG (site CCTGGGACTGC)”: the “recombinant barcode read abundance (log10)” value is 0.532. As to “CCTGGGACTTGGGTTCTAACCTGTTGCGG (site CCTGGGACTTC)”, the “recombinant barcode read abundance (log10)” value is 0.474.

Take “CCTGGGACTTGGGTTCTAACCTGTTGCGT (site CCTGGGACTAC)”: the “recombinant barcode read abundance (log10)” value stood at 1.31.

For “CCTGGGACTTGGGTTCTAACCTGTTGCGT (site CCTGGGACTCC)”, the “recombinant barcode read abundance (log10)” value came to 0.807.

Consider “CCTGGGACTTGGGTTCTAACCTGTTGCGT (site CCTGGGACTGC)”, for which the “recombinant barcode read abundance (log10)” value came to 0.178.

In the case of “CCTGGGACTTGGGTTCTAACCTGTTGCGT (site CCTGGGACTTC)”, the “recombinant barcode read abundance (log10)” value amounted to 0.0691. With “CCTGTAGCTTGGGTTCTAACCTGTTGCCT (site CCGGTAACTAG)” the figure was 0.0829; with “CCTGTAGCTTGGGTTCTAACCTGTTGCCT (site CCTGTAGCTAG)”, 1.13; with “CCTTAGCCTTGGGTTCTAACCTGTTGCCT (site CCTTACCCTAG)”, 0.0511. As to “CCTTAGCCTTGGGTTCTAACCTGTTGCCT (site CCTTAGCCTAG)”, the “recombinant barcode read abundance (log10)” value was 0.385.

Take “CCTTCTACTTGGGTTCTAACCTGTTGCTA (site CCTTCTACTAG)”: the “recombinant barcode read abundance (log10)” value came out at 0.0484.

For the sequence “CCTTCTACTTGGGTTCTAACCTGTTGCTA (site CCTTCTACTTA)”, the “recombinant barcode read abundance (log10)” value was found to be 0.392. With “CCTTGCTCTTGGGTTCTAACCTGTTGCCT (site CCTTGCTCTAG)”, the “recombinant barcode read abundance (log10)” value came out at 0.317. “CCTTGCTCTTGGGTTCTAACCTGTTGCCT (site CCTTGGACTAG)”: the “recombinant barcode read abundance (log10)” value was 0.114. With “CCTTGGACTTGGGTTCTAACCTGTTGCAA (site CCTTGGACTTT)” the figure was 0.546.

“CCTTGGACTTGGGTTCTAACCTGTTGCAA (site GCTTGGACTCT)”: the “recombinant barcode read abundance (log10)” value is 0.0226. For the sequence “CCTTGGTCTTGGGTTCTAACCTGTTGCCT (site CCTTGGTCTAG)”, the “recombinant barcode read abundance (log10)” value is 0.216. With “CCTTGGTCTTGGGTTCTAACCTGTTGCCT (site GCTTGGCCTAG)”, the “recombinant barcode read abundance (log10)” value worked out at 0.107. As to “CCTTTCACTTGGGTTCTAACCTGTTGCCT (site CCTATCCCTAG)”, the “recombinant barcode read abundance (log10)” value turned out to be 0.029. With “CCTTTCACTTGGGTTCTAACCTGTTGCCT (site CCTTTCACTAG)” the figure was 0.228; with “CGAATCGCTTGGGTTCTAACCTGTTGCCT (site CGAATCACTAG)”, 0.374. Take “CGAATCGCTTGGGTTCTAACCTGTTGCCT (site CGAATCCCTAG)”: the “recombinant barcode read abundance (log10)” value turned out to be 0.0216. With “CGAATCGCTTGGGTTCTAACCTGTTGCCT (site CGAATCGCTAG)” the figure was 0.994; with “CGAATCGCTTGGGTTCTAACCTGTTGCCT (site CGAATCTCTAG)”, 0.084; with “CGAATCTCTTGGGTTCTAACCTGTTGCCT (site CGAATCACTAG)”, 0.0112. With “CGAATCTCTTGGGTTCTAACCTGTTGCCT (site CGAATCCCTAG)” the figure was 0.221; with “CGAATCTCTTGGGTTCTAACCTGTTGCCT (site CGAATCGCTAG)”, 0. With “CGAATCTCTTGGGTTCTAACCTGTTGCCT (site CGAATCTCTAG)” the figure was 0.616; with “CGAATGTCTTGGGTTCTAACCTGTTGCTG (site CGAATGTCTCA)”, 1.2; with “CGAATGTCTTGGGTTCTAACCTGTTGCTG (site GGTATGTCTCA)”, 0.202.

As to “CGACTCCCTTGGGTTCTAACCTGTTGCGT (site CGACTCCCTAC)”, the “recombinant barcode read abundance (log10)” value was found to be 1.14. With “CGACTCCCTTGGGTTCTAACCTGTTGCGT (site GTCAAGTCTGA)” the figure was 0.391; with “CGACTGTCTTGGGTTCTAACCTGTTGCCT (site AAGTACACTCA)”, 0.0207. With “CGACTGTCTTGGGTTCTAACCTGTTGCCT (site CGACTGTCTAG)” the figure was 1.92.

As for “CGAGAACCTTGGGTTCTAACCTGTTGCCT (site AGAGAACCTAG)”, the “recombinant barcode read abundance (log10)” value is 0.0999. With “CGAGAACCTTGGGTTCTAACCTGTTGCCT (site CGAGAACCTAG)” the figure was 1.67.

“CGAGAACCTTGGGTTCTAACCTGTTGCCT (site GGAGAACCTAG)”: the “recombinant barcode read abundance (log10)” value came to 0.0316. With “CGAGAACCTTGGGTTCTAACCTGTTGCCT (site TGAGAACCTAG)” the figure was 0.12. Turning to “CGAGCAACTTGGGTTCTAACCTGTTGCTT (site CGAGCAACTAA)”, the “recombinant barcode read abundance (log10)” value is 0.0517. With “CGAGCAACTTGGGTTCTAACCTGTTGCTT (site CGTGTAACTAA)” the figure was 0.181; with “CGAGCTCCTTGGGTTCTAACCTGTTGCAT (site CGAGCTCCTAA)”, 0.0507.
